This test concerns MCH receptors. Nature of the test: MCH receptor activity class (method not given). The note with it: class by percent of control at 10^-7 M or IC50.

`CN(C)c1ccnc(N[C@H]2CC[C@@H](NC(=O)COc3ccccc3)CC2)n1` [compound 330, N-(cis-4-{[4-(dimethylamino)pyrimidin-2-yl]amino}cyclohexyl)-2-phenoxyacetamide]: the class is 2 (Class 2: The value of percent of control at 10^−7 M was from 40% to 60% or the value of IC′50 was from 50 nM to 200 nM.).

Turning to `CN(C)c1ccnc(N[C@H]2CC[C@@H](NC(=O)COc3ccccc3[N+](=O)[O-])CC2)n1` [compound 331], the class is reported as 3 (Class 3 The value of percent of control at 10^−7 M was more than 60% or the value of IC50 was more than 200 nM.).

`CN(C)c1ccnc(N[C@H]2CC[C@@H](NC(=O)c3cnc4ccccc4n3)CC2)n1` [compound 332]: the class is listed as 1 (Class 1: The value of percent of control at 10^−7 M was less than 40% or the value of IC50 was less than 50 nM.).

Take `COc1cc(C(=O)N[C@H]2CC[C@@H](Nc3nccc(N(C)C)n3)CC2)cc(OC)c1OC` [compound 333]: the class is 3 (Class 3 The value of percent of control at 10^−7 M was more than 60% or the value of IC50 was more than 200 nM.).

Consider `CN(C)c1ccnc(N[C@H]2CC[C@@H](NC(=O)c3cccc(C(F)(F)F)c3)CC2)n1` [compound 334, N-(cis-4-{[4-(dimethylamino)pyrimidin-2-yl]amino}cyclohexyl)-3-(trifluoromethyl)benzamide], for which the class is 2 (Class 2: The value of percent of control at 10^−7 M was from 40% to 60% or the value of IC′50 was from 50 nM to 200 nM.).

`CN(C)c1ccnc(N[C@H]2CC[C@@H](NC(=O)c3ccc(C(F)(F)F)cc3)CC2)n1` [compound 335]: the class is 3 (Class 3 The value of percent of control at 10^−7 M was more than 60% or the value of IC50 was more than 200 nM.).

For the compound `CN(C)c1ccnc(N[C@H]2CC[C@@H](NC(=O)c3ccccc3OC(F)(F)F)CC2)n1` [compound 336], the class is 3 (Class 3 The value of percent of control at 10^−7 M was more than 60% or the value of IC50 was more than 200 nM.).

With `COc1cc(COC(=O)N[C@H]2CC[C@@H](Nc3nccc(N(C)C)n3)CC2)c([N+](=O)[O-])cc1OC` [compound 337], the class is reported as 3 (Class 3 The value of percent of control at 10^−7 M was more than 60% or the value of IC50 was more than 200 nM.).

Take `CN(C)c1ccnc(N[C@H]2CC[C@@H](NC(=O)CCCOc3ccccc3)CC2)n1` [compound 338]: the class is given as 3 (Class 3 The value of percent of control at 10^−7 M was more than 60% or the value of IC50 was more than 200 nM.).

For `COc1ccc(Br)c(C(=O)N[C@H]2CC[C@@H](Nc3nccc(N(C)C)n3)CC2)c1` [compound 339], the class is on record as 3 (Class 3 The value of percent of control at 10^−7 M was more than 60% or the value of IC50 was more than 200 nM.).

Take `CN(C)c1ccnc(N[C@H]2CC[C@@H](NC(=O)COc3c(F)c(F)c(F)c(F)c3F)CC2)n1` [compound 340, N-(cis-4-{[4-(dimethylamino)pyrimidin-2-yl]amino}cyclohexyl)-2-(pentafluorophenoxy)acetamide]: the class is 2 (Class 2: The value of percent of control at 10^−7 M was from 40% to 60% or the value of IC′50 was from 50 nM to 200 nM.).

For the compound `COc1ccc(CC(=O)N[C@H]2CC[C@@H](Nc3nccc(N(C)C)n3)CC2)cc1OC` [compound 341], the class was 3 (Class 3 The value of percent of control at 10^−7 M was more than 60% or the value of IC50 was more than 200 nM.).

As for `CN(C)c1ccnc(N[C@H]2CC[C@@H](NC(=O)c3ccc(F)c(F)c3F)CC2)n1` [compound 342], the class is 3 (Class 3 The value of percent of control at 10^−7 M was more than 60% or the value of IC50 was more than 200 nM.).

Take `CN(C)c1ccnc(N[C@H]2CC[C@@H](NC(=O)C3CCCC3)CC2)n1` [compound 343]: the class was 3 (Class 3 The value of percent of control at 10^−7 M was more than 60% or the value of IC50 was more than 200 nM.).

For `CN(C)c1ccnc(N[C@H]2CC[C@@H](NC(=O)c3ccc(F)cc3F)CC2)n1` [compound 344], the class is recorded as 3 (Class 3 The value of percent of control at 10^−7 M was more than 60% or the value of IC50 was more than 200 nM.).

On to `CN(C)c1ccnc(N[C@H]2CC[C@@H](NC(=O)CCc3ccccc3)CC2)n1` [compound 345], for which the class is on record as 3 (Class 3 The value of percent of control at 10^−7 M was more than 60% or the value of IC50 was more than 200 nM.).

For the compound `CN(C)c1ccnc(N[C@H]2CC[C@@H](NC(=O)c3cc(F)c(F)c(F)c3F)CC2)n1` [compound 346], the class is given as 3 (Class 3 The value of percent of control at 10^−7 M was more than 60% or the value of IC50 was more than 200 nM.).

In the case of `CCOc1ccc2ccccc2c1C(=O)N[C@H]1CC[C@@H](Nc2nccc(N(C)C)n2)CC1` [compound 347], the class is given as 3 (Class 3 The value of percent of control at 10^−7 M was more than 60% or the value of IC50 was more than 200 nM.).

As to `CN(C)c1ccnc(N[C@H]2CC[C@@H](NC(=O)c3c(F)c(F)c(F)c(F)c3F)CC2)n1` [compound 348], the class is given as 3 (Class 3 The value of percent of control at 10^−7 M was more than 60% or the value of IC50 was more than 200 nM.).

On to `CN(C)c1ccnc(N[C@H]2CC[C@@H](NC(=O)c3ccc(SC(F)(F)F)cc3)CC2)n1` [compound 349], for which the class was 3 (Class 3 The value of percent of control at 10^−7 M was more than 60% or the value of IC50 was more than 200 nM.).

Turning to `CN(C)c1ccnc(N[C@H]2CC[C@@H](NC(=O)c3sc(Cl)c(Cl)c3Cl)CC2)n1` [compound 350], the class is given as 3 (Class 3 The value of percent of control at 10^−7 M was more than 60% or the value of IC50 was more than 200 nM.).

As to `CN(C)c1ccnc(N[C@H]2CC[C@@H](NC(=O)COc3cccc(Cl)c3)CC2)n1` [compound 351, 2-(3-chlorophenoxy)-N-(cis-4-{[4-(dimethylamino)pyrimidin-2-yl]amino}cyclohexyl)acetamide], the class was 1 (Class 1: The value of percent of control at 10^−7 M was less than 40% or the value of IC50 was less than 50 nM.).

On to `Cc1onc(-c2c(Cl)cccc2Cl)c1C(=O)N[C@H]1CC[C@@H](Nc2nccc(N(C)C)n2)CC1` [compound 352, 3-(2,6-dichlorophenyl)-N-(cis-4-{[4-(dimethylamino)pyrimidin-2-yl]amino}cyclohexyl)-5-methylisoxazole-4-carboxamide], for which the class is 1 (Class 1: The value of percent of control at 10^−7 M was less than 40% or the value of IC50 was less than 50 nM.).

Regarding `CN(C)c1ccnc(N[C@H]2CC[C@@H](NC(=O)c3cccnc3Oc3ccccc3)CC2)n1` [compound 353, N-(cis-4-{[4-(dimethylamino)pyrimidin-2-yl]amino}cyclohexyl)-2-phenoxynicotinamide], the class is 2 (Class 2: The value of percent of control at 10^−7 M was from 40% to 60% or the value of IC′50 was from 50 nM to 200 nM.).

In the case of `CN(C)c1ccnc(N[C@H]2CC[C@@H](NC(=O)c3cccnc3Sc3ccccc3)CC2)n1` [compound 354], the class was 3 (Class 3 The value of percent of control at 10^−7 M was more than 60% or the value of IC50 was more than 200 nM.).

Turning to `Cc1ccc(Oc2ncccc2C(=O)N[C@H]2CC[C@@H](Nc3nccc(N(C)C)n3)CC2)cc1` [compound 355, N-(cis-4-{[4-(dimethylamino)pyrimidin-2-yl]amino}cyclohexyl)-2-(4-methylphenoxy)nicotinamide], the class is on record as 1 (Class 1: The value of percent of control at 10^−7 M was less than 40% or the value of IC50 was less than 50 nM.).

For `CCCN(CCC)S(=O)(=O)c1ccc(C(=O)N[C@H]2CC[C@@H](Nc3nccc(N(C)C)n3)CC2)cc1` [compound 356, N-(cis-4-{[4-(dimethylamino)pyrimidin-2-yl]amino}cyclohexyl)-4-[(dipropylamino)sulfonyl]benzamide], the class was 1 (Class 1: The value of percent of control at 10^−7 M was less than 40% or the value of IC50 was less than 50 nM.).

Turning to `CN(C)c1ccnc(N[C@H]2CC[C@@H](NC(=O)C(C)(C)Oc3ccc(Cl)cc3)CC2)n1` [compound 357, 2-(4-chlorophenoxy)-N-(cis-4-{[4-(dimethylamino)pyrimidin-2-yl]amino}cyclohexyl)-2-methylpropanamide], the class is recorded as 2 (Class 2: The value of percent of control at 10^−7 M was from 40% to 60% or the value of IC′50 was from 50 nM to 200 nM.).

Regarding `CN(C)c1ccnc(N[C@H]2CC[C@@H](NC(=O)c3cc(-c4ccc(Cl)cc4)oc3C(F)(F)F)CC2)n1` [compound 358], the class is on record as 3 (Class 3 The value of percent of control at 10^−7 M was more than 60% or the value of IC50 was more than 200 nM.).

As for `CN(C)c1ccnc(N[C@H]2CC[C@@H](NC(=O)c3csc(-c4ccc5c(c4)CCO5)n3)CC2)n1` [compound 359, 2-(2,3-dihydro-1-benzofuran-5-yl)-N-(cis-4-{[4-(dimethylamino)pyrimidin-2-yl]amino}cyclohexyl)-1,3-thiazole-4-carboxamide], the class is reported as 1 (Class 1: The value of percent of control at 10^−7 M was less than 40% or the value of IC50 was less than 50 nM.).

In the case of `CN(C)c1ccnc(N[C@H]2CC[C@@H](NC(=O)c3cc(C(C)(C)C)nn3Cc3ccc(Cl)cc3Cl)CC2)n1` [compound 360, 3-tert-butyl-1-(2,4-dichlorobenzyl)-N-(cis-4-{[4-(dimethylamino)pyrimidin-2-yl]amino}cyclohexyl)-1H-pyrazole-5-carboxamide], the class is reported as 2 (Class 2: The value of percent of control at 10^−7 M was from 40% to 60% or the value of IC′50 was from 50 nM to 200 nM.).

Regarding `CN(C)c1ccnc(N[C@H]2CC[C@@H](NC(=O)C3=Cc4cc(Cl)ccc4OC3)CC2)n1` [compound 361, 6-chloro-N-(cis-4-{[4-(dimethylamino)pyrimidin-2-yl]amino}cyclohexyl)-2H-chromene-3-carboxamide], the class is recorded as 2 (Class 2: The value of percent of control at 10^−7 M was from 40% to 60% or the value of IC′50 was from 50 nM to 200 nM.).

For `CN(C)c1ccnc(N[C@H]2CC[C@@H](NC(=O)c3ccc(OC(F)(F)F)c(Cl)c3)CC2)n1` [compound 362], the class is on record as 3 (Class 3 The value of percent of control at 10^−7 M was more than 60% or the value of IC50 was more than 200 nM.).

For the compound `Cc1cc(=O)oc2c(OCC(=O)N[C@H]3CC[C@@H](Nc4nccc(N(C)C)n4)CC3)cccc12` [compound 363], the class was 3 (Class 3 The value of percent of control at 10^−7 M was more than 60% or the value of IC50 was more than 200 nM.).

(Values after patent publication US20050197350A1, “Novel quinoline, tetrahydroquinazoline, and pyrimidine derivatives and methods of treatment related to the use thereof” (TAISHO PHARMACEUTICAL CO., LTD., priority 2003, published 2005).)
